Test results: US20260240877A1, “INOSITOL PHOSPHATE COMPOUNDS FOR USE IN INCREASING TISSULAR PERFUSION” (SANIFIT THERAPEUTICS, S.A., priority 2019, published 2026)

Columns and labels:
[1] = system: Sprague Dawley (SD) rats treated with vitamin D3; assay: Tissue calcification (calcium content by ICP-OES), VitD rat model, prevention; type: in vivo
Description: Subjects are anesthetized by isoflurane inhalation. Blood is obtained by exsanguination through cardiac puncture. The subjects are then sacrificed and their tissues (e.g., right and left femoral arteries, aorta) are collected. The blood and tissues are processed and analyzed for determining their calcium contents. Calcium content in tissue sample is quantified via inductively coupled plasma optical emission spectrometry (ICP-OES) using an Optima 7300 DV ICP-OES System spectrometer (PerkinElmer, Inc., Waltham, MA, US) according to the manufacturer's instructions. […] The subjects from groups 1, 2, 3 and 5 were sacrificed after exsanguination. Then, their necropsies were performed, and their aortas were collected. The tissues were lyophilized for 24 h and weighed. The lyophilized tissues were then digested using a 1:1 HNO3: HClO4 mixture in a dry bath incubator for 2-4 h at 180° C. The digested tissues were subsequently diluted using ultra-pure Milli-Q water (MilliporeSigma (Merck KGaA), Burlington, MA, US) to a final volume of 10 mL. The calcium content in the aorta sample was quantified via ICP-OES. Subjects were anesthetized and their blood was obtained in D24. The subjects were sacrificed after exsanguination. Then, their necropsies were performed, and their aortas were collected. The tissues were lyophilized for 24 h and weighed. The lyophilized tissues were then digested using a 1:1 HNO3: HClO4 mixture in a dry bath incubator for 2-4 h at 180° C. The digested tissues were subsequently diluted using ultra-pure Milli-Q water (MilliporeSigma (Merck KGaA), Burlington, MA, US) to a final volume of 10 mL. The calcium content in the tissue samples was quantified via ICP-OES. Subjects were anesthetized and their blood was obtained in D12. The subjects were sacrificed after exsanguination. Then, their necropsies were performed, and their heart and aorta arteries were collected. The tissues were lyophilized for 24 h and weighed. […] The calcium content in the tissue samples was quantified via ICP-OES.

[2] = in vivo; cited from earlier work
[3] = system: Sprague Dawley (SD) rats with vitamin D3-induced limb ischemia; assay: Limb blood perfusion by laser doppler perfusion imaging, treatment after inception of limb ischemia; type: in vivo, rat; conditions: Example 3; 40 mg/kg daily D5 to D13
Description: Position limb blood perfusion and ischemia status (i.e., blood perfusion including, perfusion unit, perfusion difference and perfusion ratio) is evaluated by laser doppler perfusion imaging using a PeriCam PSI NR imager (Perimed AB, Järfä11a, SE). Subjects are anesthetized using 3% isoflurane delivered in 100% oxygen at a flow rate at 1 L/min before measuring. The perfusion difference and perfusion ratio are calculated by comparing the baseline and any indicated interim or final readings for each group. […] Limb ischemia was induced in the subjects of groups 2-5 by subcutaneous administration of 120,000 IU/kg vitamin D3 (cholecalciferol, Duphafral D3 1000; Zoetis Inc., Parsippany, NJ, US) in physiological saline solution (2 mL/kg) every day during D1 to D3. The group 1 subjects were administered physiological saline solution (2 mL/kg) subcutaneously every day from D1 to D3 with no vitamin D3. Subjects in groups 3a placebo were administered 2 mL/kg of physiological saline solution daily from D5 to D13 via subcutaneous route. Subjects in group 3b placebo were administered orally 5 mL/kg of a 5% CMC sodium salt in water solution daily from D5 to D13. […] The perfusion difference and perfusion ratio were calculated by comparing the baseline and either D5 and D13 readings for each group.

[4] = system: Sprague Dawley (SD) rats with vitamin D3-induced limb ischemia; assay: Walking ability (MWD, MWT) by treadmill running test, prevention of vitamin D3-induced limb ischemia; type: in vivo, rat
Description: (§1) Quantification of walking ability (maximal waling time (MWT) and maximal walking distance (MWD)) are measured by a forced incremental treadmill running test. A two-lane rodent treadmill (LE8709TS; PanLab/Harvard Apparatus, Holliston, MA, US) is employed. The treadmill is maintained at a 15% inclination running at a speed of 15 m/min (25 cm/sec) during the first 5 min, then at 33 cm/see during the following 5 min, and finally, at a speed of 40 cm/see for a maximum of 30 additional minutes.
Subjects are exercised in the treadmill for acclimatization according to a set protocol prior to testing.
Subjects are kept running for up to 40 min or until exhausted (i.e., they remain on the shock grid for five continuous seconds) during the test. MWD and MWT are then calculated for each animal.
Maximal waling time (MWT) and maximal walking distance (MWD) were assessed in groups 1~4 by the treadmill running test (8 to10 animals per group and time point) in DO, D5, D10, and D17.
Subjects were acclimatized to the treadmill for two days before conducting the test. On the first day, subjects were exercised for 5 to 10 minutes with the treadmill speed ranging progressively from 15 m/min to 24 m/min. On the second day, the subjects were exercised initially at a speed of 15 m/min for the 5 minutes. Then, they were exercised at 19.8 m/min (33 cm/sec) for 5 additional minutes. Finally, the subjects were exercised at 24 m/min (40 cm/sec) for a maximum 30 additional minutes. Preoperative walking time and distance recordings were obtained.
Limb function (MWT and MWD) was assessed in groups 1, 2, and 3 using the treadmill running test 15 min after the corresponding daily administration. Limb function in groups 4 was assessed from 3 to 4 hours after treatment.
(§2) The subjects were kept running for 40 minutes or until exhausted (i.e., they remain on the shock grid for five continuous seconds). MWD and MWT was then calculated for each animal.
Maximal walking time (MWT) and maximal walking distance (MWD) were assessed in groups 1-8 by the treadmill running test (8 to12 animals per group and time point) in DO, D5 and D10.
Limb function (MWT and MWD) was assessed in groups 1, 2, 3, 4, 5, 6 and 7 using the treadmill running test 15 min after the corresponding daily administration. Limb function in group 8 was assessed from 3 to 4 hours after treatment.

[5] = system: Sprague Dawley (SD) rats with vitamin D3-induced limb ischemia; assay: Limb blood perfusion by laser doppler perfusion imaging, prevention of vitamin D3-induced limb ischemia; type: in vivo, rat
Description: Position limb blood perfusion and ischemia status (i.e., blood perfusion including, perfusion unit, perfusion difference and perfusion ratio) is evaluated by laser doppler perfusion imaging using a PeriCam PSI NR imager (Perimed AB, Järfä11a, SE). Subjects are anesthetized using 3% isoflurane delivered in 100% oxygen at a flow rate at 1 L/min before measuring. The perfusion difference and perfusion ratio are calculated by comparing the baseline and any indicated interim or final readings for each group. […]
Limb ischemia status was evaluated at days DO (baseline), D6 and D12 in all rats by laser doppler perfusion imaging. The perfusion difference and perfusion ratio were calculated by comparing the DO baseline and either the D6 and D12 readings for each group. […]
Limb ischemia status was evaluated during treatment and after treatment was interrupted (i.e., DO, D6, D12, D18) in all rats by laser doppler perfusion imaging. The perfusion difference and perfusion ratio were calculated by comparing the baseline and either of the D6, D12, and D18 readings for each group. […]
Limb ischemia status was evaluated during the treatment period (i.e., DO, D6 and D12) by laser doppler perfusion imaging in all rats. The perfusion difference and perfusion ratio were calculated by comparing the baseline and either of the D6 and D12 readings for each group.

[6] = system: Sprague Dawley (SD) rats with vitamin D3-induced limb ischemia; assay: Walking ability by treadmill running test, treatment after inception of limb ischemia; type: in vivo, rat; conditions: Example 3; 40 mg/kg/day, treatment started 5 days after ischemia induction, D11
Description: as §1
Maximal walking time (MWT) and maximal walking distance (MWD) were assessed in all groups at DO and in groups 1, 3a, 3b, 4, and 5 at D6 and D11 by the treadmill running test (8 to 12 animals per group and time point). Subjects were acclimatized to the treadmill for two days before conducting the test. On the first day, subjects were exercised for 5 to 10 minutes with the treadmill speed ranging progressively from 15 m/min to 24 m/min. […]
Limb function (MWT and MWD) was assessed in groups 1, 3a, 3b, and 4 using the treadmill running test 15 min after the corresponding daily administration. Limb function in groups 5 was assessed from 3 to 4 hours after treatment.
as §2

[7] = system: adenine-induced uremic Sprague Dawley (SD) rats; assay: Limb blood perfusion by laser doppler perfusion imaging, adenine-induced uremic rat model; type: in vivo; conditions: Example 6; SNF472 30, 45 mg/kg s.c. or 400 mg/4 weeks Alzet pump; cilostazol 45 mg/kg oral; D1 to D21
Description: Position limb blood perfusion and ischemia status (i.e., blood perfusion including, perfusion unit, perfusion difference and perfusion ratio) is evaluated by laser doppler perfusion imaging using a PeriCam PSI NR imager (Perimed AB, Järfä11a, SE). Subjects are anesthetized using 3% isoflurane delivered in 100% oxygen at a flow rate at 1 L/min before measuring. The perfusion difference and perfusion ratio are calculated by comparing the baseline and any indicated interim or final readings for each group.
Uremia and limb ischemia were induced in groups 2-6 by a daily dose of adenine (500 mg/kg, suspended in 1% carboxymethyl cellulose, administered orally) for the first 10 days, and then with a dose of α-calcidol (100 ng/kg in olive oil, administered orally) three times per week from D11 to D19, to accelerate and homogenize the development of cardiovascular calcification and ischemia.
Animals in group 6 were administered orally 45 mg/kg cilostazol (C20H27N5O2, free base 369.46 g/mol; lot no. LRAB9590, Sigma-Aldrich Corp., St. Louis, MO, US) in a 5% CMC sodium salt in water solution (5 mL/kg) daily from D1 to D21.
Limb ischemia status was evaluated during treatment (i.e., DO, D10 and D17 and D21) in all rats by laser doppler perfusion imaging. The perfusion difference and perfusion ratio were calculated by comparing the baseline and of the D10, D17 and D21 readings for each group.

[8] = system: adenine-induced uremic Sprague Dawley (SD) rats; assay: Heart and aorta calcification (calcium content by ICP-OES), adenine-induced uremic rat model; type: in vivo; conditions: Example 6; SNF472 s.c. dosing or Alzet pump; cilostazol 45 mg/kg oral; D21
Description: Uremia and limb ischemia were induced in groups 2-6 by a daily dose of adenine (500 mg/kg, suspended in 1% carboxymethyl cellulose, administered orally) for the first 10 days, and then with a dose of α-calcidol (100 ng/kg in olive oil, administered orally) three times per week from D11 to D19, to accelerate and homogenize the development of cardiovascular calcification and ischemia. Subjects were anesthetized and their blood was obtained in D21. The subjects were sacrificed after exsanguination. Then, their necropsies were performed, and their heart and aorta arteries were collected. The tissues were lyophilized for 24 h and weighed. The lyophilized tissues were then digested using a 1:1 HNO3: HClO4 mixture in a dry bath incubator for 2-4 h at 180° C. The digested tissues were subsequently diluted using ultra-pure Milli-Q water (MilliporeSigma (Merck KGaA), Burlington, MA, US) to a final volume of 10 mL. The calcium content in the tissue samples was quantified via ICP-OES.

[9] = system: people with symptomatic PAD; conditions: recent studies in PAD patients; cited from earlier work

| SMILES | inhibition of aorta calcification compared to placebo ([1]; Example 1, 20 mg/kg daily, D12) | inhibition of aorta calcification compared to placebo ([1]; Example 2, 20 mg/kg daily D1 to D12, D24 (12 days after interruption of treatment)) | heart and aorta arteries calcification ([1]; Example 5, SNF472 1-45 mg/kg s.c., cilostazol 45 mg/kg oral, D12) | side effects [2] | limbs blood perfusion in D13 compared to D5 before treatment [3] | improvement of Maximal Walking Distance (MWD) compared to vehicle ([4]; Example 2, 20 mg/kg daily, D10) | improvement of Maximal Walking Time (MWT) compared to vehicle ([4]; Example 2, 20 mg/kg daily, D10) | effect on walking ability after interrupting treatment ([4]; Example 2, D17, 5 days after interrupting treatment) | walking ability compared to vehicle ([4]; Example 5, SNF472 1-45 mg/kg s.c., cilostazol 45 mg/kg oral, daily D1 to D12) | rat limb ischemia (blood perfusion) ([5]; Example 2, 20 mg/kg daily D1 to D12 (SNF472 s.c., cilostazol oral)) | rat limb ischemia (blood perfusion) ([5]; Example 5, SNF472 1, 7.5, 15, 30, 45 mg/kg s.c., cilostazol 45 mg/kg oral, daily D1 to D12) | improvement of walking ability (MWD) compared to vehicle [6] | rat limb ischemia in uremic rats (blood perfusion) [7] | heart and aorta arteries calcification in uremic rats [8] | intermittent claudication symptoms or maximal walking distance versus placebo [9] |
| --- | --- | --- | --- | --- | --- | --- | --- | --- | --- | --- | --- | --- | --- | --- | --- |
| O=C1CCc2cc(OCCCCc3nnnn3C3CCCCC3)ccc2N1 [Cilostazol, 6-[4-(1-cyclohexyl-1H-tetrazol-5yl)butoxy]-3,4-dihydro-2 (1H)-quinolinone] | not active against calcification | not active against calcification | not active against calcification | headache, diarrhea, palpitations, and lightheadedness | No improvement or ischemia rescue | +54% | +46% | lost its beneficial effects | improved walking ability | not effective | not effective | not effective | not effective | not active against calcification | – |
| CC(=O)CCCCn1c(=O)c2c(ncn2C)n(C)c1=O [pentoxifylline] | – | – | – | – | – | – | – | – | – | – | – | – | – | – | not significantly improved |
